One molecule from patent publication US20240398775A1, “PHARMACEUTICAL COMPOSITION FOR USE IN TREATING COGNITIVE DECLINE OR FOR USE IN TREATING OVERWEIGHT OR OBESITY” (University of the Ryukyus, priority 2021, published 2024) can be followed below.

Common to all, as to type: in vivo, mouse
The subject of experiment [1] is MAP2, GluA1, GluA2, DCX. Nature of the experiment: Immunohistochemical analysis (MAP2, GluA1, GluA2, DCX) of hippocampus. The source says:
Mouse brains were perfusion-fixed with 4% paraformaldehyde, embedded in paraffin, and cut into 4 micrometer thick sections to be used for immunohistochemical analysis of monoclonal antibodies against DCX (E-6 monoclonal, 1:50, Santa Cruz Biotechnology Inc, Dallas, USA), MAP2ab (AP-20 monoclonal, 1:100, SIGMA-ALDRICH, St. Louis, USA), GluA1 ([…] polyclonal, 1:100, EMD Millipore Corp., Burlington, USA), and GluA2 (AB 1768-1 polyclonal, 1:5, EMD Millipore Corp., Burlington, USA).
The immunostained region in each of the expression regions of MAP2, GluA1, and GluA2 was acquired using a ZVI format AxioVision (Carl Zeiss, Germany) microscope (objective lens 20×). Generation of data image processing with image segmentation was performed using machine learning with ZEN Intelliesis software. 1000 or more cells were examined in each group. One-way variance analysis was used for testing variance among the three groups excluding data of 3SD or higher. Then, the following number of samples was used.

Experiment [2] concerns GluA1. Nature of the experiment: BS3 crosslinking assay / Western blot of GluA1 subunit. The conditions noted are these: HFD-fed mice treated with PER, n=4; HFD gave 3-fold increase vs CD. As for the experimental part:
Crosslinking using the BS^3 procedure carried out here was carried out based on previously described methods (60). Hippocampal slices of 17 to 18 week old male C57BL/6J background mice (CD, HFD, and HFD with PER treatment) or 12 to 13 week old ob/ob mice (ob/ob, and ob/ob with PER treatment) were prepared as previously reported (56, 57). Hippocampal slices were prepared and collected, and then CA1, CA2, CA3, DG, and EC regions were separated from the hippocampal slices using a dissection knife. […] The total protein concentration of the lysate was measured using the Lowry method (61). […] BS^3 samples were analyzed by SDS-PAGE directly without purification, and surface and intracellular bands were measured in the same lane, thus no normalization was required and sample throughput was improved. […] Membranes were incubated with HRP-labeled anti-rabbit IgG (1:3,000, Cell Signaling Technology, Danvers, MA, USA) for 30 min and extensively washed again with TBS-T. After soaking the membrane in the chemiluminescence detection substrate Chemi-Lumi One (Nacalai Tesque, Tokyo, Japan) for 1 min, luminescence was detected using a LuminoGraph1 imaging system (Atto, Tokyo, Japan). The surface and intracellular bands of each lane were analyzed using a CS Analyzer (Atto, Tokyo, Japan). […]
(In western blotting, separated proteins are transferred to a membrane and probed.)

Experiment [3] concerns NL-G-F(−/−) mice. Kind of experiment: Hippocampus function-dependent fear conditioning test in NL-G-F(−/−) mice. The conditions noted are these: perampanel alone 5 mg/kg or 10 mg/kg. As for the experimental part: Contextual fear conditioning was applied with slight modifications to published protocols (50). Mice were transferred to the animal experimental room and allowed to acclimatize for at least 30 minutes prior to contextual fear conditioning training. Next, the mice were placed in a foot shock system model MK-450 MSQ (Muromachi Kikai Co., Ltd., Japan), searching was performed for 2 minutes, and then 3 electric foot shocks (0.8 mA, 2 sec, 2 min interval) were performed. After mice were left in the apparatus for an additional 1 minute, the animals were removed.
NL-G-F(−/−) mice, a dementia model, were administered with memantine (mema), exercise, memantine and exercise, memantine and perampanel, and perampanel alone (5 mg/kg or 10 mg/kg), and subjected to behavioral experiments. As the behavior test, a novel object recognition test and a hippocampus function-dependent fear conditioning test were performed. Memantine is an antagonist of the NMDA receptor, but has distinct properties from other NMDA receptor antagonists (refer to Hokama Y., et al., Neuro Oncology, 2022, noac162). That is, memantine is a drug that works only when glutamic acid is excessively present in the brain.

Experiment [4] deals with HFD-fed mice. Kind of experiment: Five-trial social memory assay. The conditions noted are these: PER treatment. The method, then:
Five-trial social tests were performed as previously described (19). In summary, subject mice with CD, HFD, and HFD with PER treatment were housed individually starting 7 days before the study to establish territory dominance. On the day of the test, a female mouse was presented in the cages of subject male mice, which is a subject (FIG. 2G), and 5 min trials were performed 4 times in succession at 10 min intervals. In the fifth trial, a novel female mouse was presented (FIG. 2G) and the duration of the social investigation was recorded.

Turning to `N#Cc1ccccc1-c1cc(-c2ccccn2)cn(-c2ccccc2)c1=O` [PER, 3-(2-cyanophenyl)-5-(2-pyridyl)-1-phenyl-1,2-dihydropyridine-2-one], the “integrity of dendritic arbors in CA1 (anti-MAP2 antibody staining)” value in experiment [1] (HFD mice with PER) was “completely restored”. In addition, in experiment [1] (HFD mice with PER treatment), the “GluA2/GluA1 ratio (immunostaining)” value was “increased” and the “immunostaining reaction of GluA1 in CA1” value is given as “decreased”. Also, in experiment [1] (HFD mice with PER, DG), the “double cortin positive cells” value is “increase”. For the same molecule, in experiment [1] (ob/ob mice with PER), the “GluA1 expression in CA1 (immunoreactive region)” value is on record as “restored” and the “ratio of GluA2/GluA1 (immunoreactive region)” value is given as “restored”. In addition, the “integrity of the dendritic arbors (MAP2 staining)” value in experiment [1] (ob/ob mice, PER for 1 week or 12 weeks) is listed as “significantly more restored by 12 week administration than by 1 week administration”. Further, the “maturation of the protrusions of DCX-positive cells” value in experiment [1] (ob/ob mice, PER for 12 weeks) is listed as “progressed”. Moreover, the “GluA1 in CA3 (BS3 crosslinking)” value in experiment [2] was “reduced GluA1 to basal levels”. In addition, the “cognitive function in hippocampus function-dependent fear conditioning test” value in experiment [3] is “remarkable improvement in cognitive function”. Moreover, the social memory result in experiment [4] is “restored social memory disturbance”.
